Results published in publication PMC8584989 (International Journal of Molecular Sciences, 2021).
Like-named read-outs stand apart in the source and are kept apart here.

Columns and labels:
ABCC1 = ABCC1 (Homo sapiens, UniProt P33527); assay: MDCKII cellular monolayer transport assay; type: in vitro ADME; details: 1 µM tepotinib, 4 h
Method: (§1) This assay was performed as described previously. […] The Transwells were incubated until full confluence for 7 days with media replacement every 2 days. Prior addition of tested drugs, inserts were washed with 1 × PBS on both apical and basal sides. […] Samples were then collected from the acceptor chambers at 0.5, 1, 2 and 4 h intervals. Cellular monolayers’ integrity was verified using fluorescein isothiocyanate-labeled dextran (MW = 40 kDa) accepting leakage up to 5% per hour.

ABCB1 [1] = biological target: T1, ABCB1 (Homo sapiens, UniProt P08183); assay: MDCKII cellular monolayer transport assay; type: in vitro ADME; details: 1 µM tepotinib, 4 h, asymmetry aborted by 1 µM LY335979
T1 sequence (P08183 whole entry): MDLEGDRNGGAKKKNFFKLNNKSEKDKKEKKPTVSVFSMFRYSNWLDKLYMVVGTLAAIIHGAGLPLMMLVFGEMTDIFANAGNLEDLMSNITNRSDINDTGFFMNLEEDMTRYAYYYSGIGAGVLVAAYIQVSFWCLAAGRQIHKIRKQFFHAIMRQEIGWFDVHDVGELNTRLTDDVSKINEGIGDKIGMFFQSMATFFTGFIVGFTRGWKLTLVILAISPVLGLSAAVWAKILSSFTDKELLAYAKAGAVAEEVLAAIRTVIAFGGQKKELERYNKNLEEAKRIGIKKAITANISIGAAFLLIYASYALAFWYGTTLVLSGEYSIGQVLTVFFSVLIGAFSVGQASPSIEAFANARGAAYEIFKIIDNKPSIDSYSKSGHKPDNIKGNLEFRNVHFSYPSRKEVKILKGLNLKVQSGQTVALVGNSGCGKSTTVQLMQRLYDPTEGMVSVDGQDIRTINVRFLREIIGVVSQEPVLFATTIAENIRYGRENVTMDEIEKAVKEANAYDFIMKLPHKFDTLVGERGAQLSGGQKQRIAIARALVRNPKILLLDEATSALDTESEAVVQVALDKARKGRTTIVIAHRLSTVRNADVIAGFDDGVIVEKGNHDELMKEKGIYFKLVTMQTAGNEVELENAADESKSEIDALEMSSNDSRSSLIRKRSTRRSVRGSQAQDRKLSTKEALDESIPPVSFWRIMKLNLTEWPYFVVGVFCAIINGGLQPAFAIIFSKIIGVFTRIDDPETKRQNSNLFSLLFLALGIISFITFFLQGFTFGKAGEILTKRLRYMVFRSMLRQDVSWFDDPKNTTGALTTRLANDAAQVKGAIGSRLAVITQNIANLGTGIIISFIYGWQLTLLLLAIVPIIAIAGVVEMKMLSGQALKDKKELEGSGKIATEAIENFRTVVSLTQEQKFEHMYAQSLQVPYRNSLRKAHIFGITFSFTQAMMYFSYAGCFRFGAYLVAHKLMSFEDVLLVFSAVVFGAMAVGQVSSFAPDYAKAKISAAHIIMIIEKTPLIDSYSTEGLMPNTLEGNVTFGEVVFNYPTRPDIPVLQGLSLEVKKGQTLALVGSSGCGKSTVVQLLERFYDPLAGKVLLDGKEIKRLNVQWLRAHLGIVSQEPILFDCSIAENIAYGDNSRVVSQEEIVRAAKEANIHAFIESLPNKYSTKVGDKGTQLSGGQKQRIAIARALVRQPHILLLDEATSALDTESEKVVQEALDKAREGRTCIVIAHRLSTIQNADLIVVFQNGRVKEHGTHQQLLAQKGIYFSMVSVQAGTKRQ
Method: as §1

ABCG2 [2] = biological target: T2, ABCG2 (Homo sapiens, UniProt Q9UNQ0); assay: MDCKII cellular monolayer transport assay; type: in vitro ADME; details: 1 µM tepotinib, 4 h
T2 sequence (Q9UNQ0 1-655): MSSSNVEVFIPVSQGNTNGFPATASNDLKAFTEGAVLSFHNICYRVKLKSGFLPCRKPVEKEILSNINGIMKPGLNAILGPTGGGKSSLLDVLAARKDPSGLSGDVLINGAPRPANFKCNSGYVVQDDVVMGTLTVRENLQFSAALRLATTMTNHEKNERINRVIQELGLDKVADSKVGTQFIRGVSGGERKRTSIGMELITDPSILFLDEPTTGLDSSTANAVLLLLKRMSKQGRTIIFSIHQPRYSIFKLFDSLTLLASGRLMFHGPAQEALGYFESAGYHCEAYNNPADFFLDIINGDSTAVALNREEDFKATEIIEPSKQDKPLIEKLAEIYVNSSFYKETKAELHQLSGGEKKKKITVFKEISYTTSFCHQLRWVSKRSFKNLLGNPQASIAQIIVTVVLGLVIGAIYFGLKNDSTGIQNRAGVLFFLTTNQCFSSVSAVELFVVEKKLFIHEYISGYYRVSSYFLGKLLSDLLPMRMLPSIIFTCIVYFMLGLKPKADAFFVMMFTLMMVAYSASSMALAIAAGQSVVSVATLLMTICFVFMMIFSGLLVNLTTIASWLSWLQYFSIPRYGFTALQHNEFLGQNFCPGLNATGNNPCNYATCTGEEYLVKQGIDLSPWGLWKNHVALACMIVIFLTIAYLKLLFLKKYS
Method: as §1

CYP2D6 = biological target: T3, CYP2D6 (Homo sapiens, UniProt P10635); assay: Vivid CYP450 Screening Kit, recombinant CYP2D6; type: in vitro ADME
T3 construct: purchased Thermo Fisher Scientific
T3 sequence (P10635 whole entry): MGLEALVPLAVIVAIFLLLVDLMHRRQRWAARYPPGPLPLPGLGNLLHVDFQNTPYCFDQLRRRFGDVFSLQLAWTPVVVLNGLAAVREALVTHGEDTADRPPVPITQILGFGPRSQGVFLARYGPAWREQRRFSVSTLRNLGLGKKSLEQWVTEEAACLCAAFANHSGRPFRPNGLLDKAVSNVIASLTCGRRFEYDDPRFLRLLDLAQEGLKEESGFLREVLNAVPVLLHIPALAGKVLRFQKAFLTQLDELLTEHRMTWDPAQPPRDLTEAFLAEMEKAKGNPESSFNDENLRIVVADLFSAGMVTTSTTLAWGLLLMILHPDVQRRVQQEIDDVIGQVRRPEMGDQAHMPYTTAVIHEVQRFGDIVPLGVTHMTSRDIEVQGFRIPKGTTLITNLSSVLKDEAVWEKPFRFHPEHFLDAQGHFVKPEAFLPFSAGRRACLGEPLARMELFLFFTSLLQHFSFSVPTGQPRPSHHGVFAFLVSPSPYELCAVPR
Method: (§2) CYP inhibitory assay was performed using Vivid CYP450 screening kit as described previously. The kits consist of microsomal fraction containing human CYP isoforms, human CYP reductase and in several cases cytochrome b5. Experiments were performed following the manufacturer’s protocol on black 96-well plates using kinetic mode. […] Then, the master mix (CYP isoenzyme with an NADPH regeneration system in buffer) was added in each well and plate was pre-incubated for 10 min. The reaction was started with the mixture of NADP^+ and Vivid substrate and the fluorescence of samples was measured in 1 min interval for 60 min using an Infinite M200 Pro microplate reader (Tecan, Männedorf, Switzerland). Data from linear phase (15 min) were used for data evaluation.

CYP3A5 = biological target: T4, CYP3A5 (Homo sapiens, UniProt P20815); assay: Vivid CYP450 Screening Kit, recombinant CYP3A5; type: in vitro ADME
T4 construct: purchased Thermo Fisher Scientific
T4 sequence (P20815 whole entry): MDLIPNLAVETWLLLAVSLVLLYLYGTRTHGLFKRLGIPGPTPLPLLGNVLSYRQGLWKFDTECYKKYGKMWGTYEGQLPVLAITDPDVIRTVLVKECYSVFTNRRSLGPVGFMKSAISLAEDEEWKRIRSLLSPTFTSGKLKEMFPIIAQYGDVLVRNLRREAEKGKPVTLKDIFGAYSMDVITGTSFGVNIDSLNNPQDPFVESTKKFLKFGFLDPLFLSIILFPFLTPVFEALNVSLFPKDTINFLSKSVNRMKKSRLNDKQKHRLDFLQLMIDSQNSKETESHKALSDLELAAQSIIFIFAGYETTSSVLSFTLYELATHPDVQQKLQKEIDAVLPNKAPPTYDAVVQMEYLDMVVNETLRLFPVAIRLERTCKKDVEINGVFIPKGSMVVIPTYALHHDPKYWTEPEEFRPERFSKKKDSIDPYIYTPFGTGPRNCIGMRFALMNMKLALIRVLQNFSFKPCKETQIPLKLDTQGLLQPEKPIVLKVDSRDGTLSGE
Method: as §2

ABCG2 [3] = biological target: T2, ABCG2; assay: Inhibitory accumulation assay in MDCKII-ABCG2 cells; type: cell-based
Method: Accumulation assays were performed as described previously. […] The daunorubicin and mitoxantrone accumulation assays were performed in above mentioned cell lines and were also adopted to primary NSCLC cultures. […] Cells were incubated up to 70-80% confluence for approximately 24 h. […] The cells there trypsinized on ice, resuspended with 2% FBS in cold PBS solution and then fluorescence was detected using flow cytometer (BD FACSCanto II, Allschwil, Switzerland). […] For data presentation, the ratios of relative fluorescence units (RFUs) from treated samples to RFUs from vehicle-treated (control) cells were computed generating “relative substrate accumulation”.

[4] = MTT proliferation / drug combination assay; details: human
ABCB1 [5] = biological target: T1, ABCB1; details: DI study in healthy subjects; cited from earlier work
[6] = system: patient-derived NSCLC explants; assay: Daunorubicin and mitoxantrone accumulation in primary NSCLC explants; type: cell-based, human; details: six primary cultures; predominantly those with higher transporters' expression levels
Text: Tumor biopsies were donated by NSCLC patients at the Department of Cardiac Surgery, University Hospital Hradec Králové following written informed consent approved by the University Hospital Ethics Committee (study no. 202002 […]). Subjects' characteristics are shown in Supplementary Materials (Table S1). The NSCLC samples were collected immediately after the lung lobectomy and excision of tumor by the pathologist, which was followed by the isolation of cancer cells using a modified procedure based on previously published protocols. The tumor tissues were minced in small pieces around 2-5 mm in diameter using a scalpel. To liberate the cells from tissues, the minced pieces were transferred into the prewarmed 0.1% collagenase in 1 × MEM and placed in the water bath for 30 min. Following the incubation, BSA in MEM was added and cells were sieved through a 40 μm-sized cell strainer. Then, the solution was centrifuged at 200× g for 5 min. The pellet was resuspended with a BSA solution in MEM. […] The cells there trypsinized on ice, resuspended with 2% FBS in cold PBS solution and then fluorescence was detected using flow cytometer (BD FACSCanto II, Allschwil, Switzerland). […] For data presentation, the ratios of relative fluorescence units (RFUs) from treated samples to RFUs from vehicle-treated (control) cells were computed generating “relative substrate accumulation”.

ABCC1, sequence (P33527 whole entry): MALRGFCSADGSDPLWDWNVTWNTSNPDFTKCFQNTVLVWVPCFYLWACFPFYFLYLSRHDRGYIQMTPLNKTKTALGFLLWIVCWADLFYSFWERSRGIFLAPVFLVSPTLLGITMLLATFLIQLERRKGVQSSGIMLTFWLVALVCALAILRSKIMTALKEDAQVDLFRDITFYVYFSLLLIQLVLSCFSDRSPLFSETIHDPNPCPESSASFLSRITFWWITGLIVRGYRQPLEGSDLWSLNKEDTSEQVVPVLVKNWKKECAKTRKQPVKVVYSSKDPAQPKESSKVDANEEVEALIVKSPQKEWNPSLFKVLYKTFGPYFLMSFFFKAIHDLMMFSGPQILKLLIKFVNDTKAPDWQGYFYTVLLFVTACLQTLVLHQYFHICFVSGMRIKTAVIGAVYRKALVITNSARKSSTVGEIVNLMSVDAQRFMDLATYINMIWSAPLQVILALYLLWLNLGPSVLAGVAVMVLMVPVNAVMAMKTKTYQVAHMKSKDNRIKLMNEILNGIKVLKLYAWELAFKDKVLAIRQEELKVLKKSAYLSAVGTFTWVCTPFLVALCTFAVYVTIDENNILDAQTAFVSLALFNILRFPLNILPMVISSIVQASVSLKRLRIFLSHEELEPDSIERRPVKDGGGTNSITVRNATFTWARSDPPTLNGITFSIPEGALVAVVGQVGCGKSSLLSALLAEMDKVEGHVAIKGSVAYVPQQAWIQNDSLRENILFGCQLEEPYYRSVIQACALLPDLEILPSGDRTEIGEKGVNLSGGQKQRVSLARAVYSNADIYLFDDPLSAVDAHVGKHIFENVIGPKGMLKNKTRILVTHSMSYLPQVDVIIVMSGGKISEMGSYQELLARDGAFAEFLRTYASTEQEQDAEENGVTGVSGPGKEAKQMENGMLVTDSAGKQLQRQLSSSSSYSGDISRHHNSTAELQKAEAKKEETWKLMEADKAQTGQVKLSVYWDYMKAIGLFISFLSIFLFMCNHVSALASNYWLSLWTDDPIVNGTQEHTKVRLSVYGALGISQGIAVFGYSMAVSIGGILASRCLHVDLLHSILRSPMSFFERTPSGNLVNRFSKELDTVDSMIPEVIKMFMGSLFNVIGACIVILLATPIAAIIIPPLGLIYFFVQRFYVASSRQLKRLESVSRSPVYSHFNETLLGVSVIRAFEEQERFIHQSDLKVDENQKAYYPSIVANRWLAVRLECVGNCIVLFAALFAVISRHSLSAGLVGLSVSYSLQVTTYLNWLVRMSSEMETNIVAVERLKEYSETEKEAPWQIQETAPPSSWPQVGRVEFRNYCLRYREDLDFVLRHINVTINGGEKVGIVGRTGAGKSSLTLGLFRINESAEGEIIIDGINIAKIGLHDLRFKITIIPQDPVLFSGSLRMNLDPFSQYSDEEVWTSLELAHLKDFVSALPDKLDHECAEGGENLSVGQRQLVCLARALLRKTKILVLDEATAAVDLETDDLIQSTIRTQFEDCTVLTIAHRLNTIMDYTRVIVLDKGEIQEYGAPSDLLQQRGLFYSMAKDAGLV

Structure (SMILES): CN1CCC(COc2cnc(-c3cccc(Cn4nc(-c5cccc(C#N)c5)ccc4=O)c3)nc2)CC1 [tepotinib, Tepotinib]
- Substrate affinity for ABCC1 (ABCC1): No substrate affinities
- Substrate affinity for ABCB1 (transport asymmetry) (ABCB1 [1]): ABCB1 substrate
- Substrate affinity for ABCG2 (ABCG2 [2]): No substrate affinities
- IC50 (CYP2D6): > 50 µM
- IC50 (CYP3A5): 38.8 µM
- IC50 (ABCG2 [3]; 5 µM mitoxantrone, 1 h, read-out: IC50, relative mitoxantrone accumulation): 29.9 µM
- IC50 (ABCG2 [3]; 8 µM hoechst 33342, read-out: IC50, relative Hoechst 33342 accumulation): 15.8 µM
- IC50 at 48 h [4]: 16.4 µM
- Effect on AUC and Cmax of ABCB1 substrate dabigatran etexilate (ABCB1 [5]): significantly increased AUC and Cmax
- Effect on accumulation of mitoxantrone and daunorubicin [6]: significantly increased the accumulation of model anticancer drugs in some of the primary samples
